Key:
[1] = test system: CHO-K1; assay: Impact of phloretin on CHO-K1 engineered for constitutive SEAP expression (SEAP production, viable cell density); assay type: cell-based, Chinese hamster; settings: 48 h
Experimental: CHO-K1 engineered for constitutive SEAP expression are cultivated in culture medium supplemented with different phloretin concentrations (0-100 μM) and SEAP production (bars) as well as maximum cell density are assessed after 48 h (line). Abbreviations: C.D.: Cell Density (10^6/mL); Phl.: Phloretin (μM)
To evaluate the stability of phloretin in culture medium and assess its impact on mammalian cells, standard ChoMaster® HTS medium is supplemented with increasing concentrations of phloretin (0, 25, 50, 75, 100 μM), and this medium is incubated in the presence and absence of CHO-K1 engineered for constitutive SEAP expression (pSEAP2-Control; PSV40-SEAP-pA, Clontech). […] Phloretin levels determined over a period of 64 h in cell-free culture medium establish a functional half-live of 70 h for this flavonoid.

[2] = test system: microencapsulated CHO-PEACE8 implants; assay: Transdermal phloretin control of SEAP from microencapsulated CHO-PEACE8 implanted subcutaneously in mice; assay type: in vivo, female OF1 mice; settings: vaseline-based skin lotion 200 μL, 0-42 mg phloretin, every day; 72 h after implantation
Experimental: (A) Microencapsulated CHO-PEACE8 are implanted subcutaneously into female OF1 mice (2×10^6 cells/mouse). 200 μL of a cream containing different amounts of phloretin (0, 5.25, 10.5, 21 and 42 mg) is applied to a shaved skin area near the implant site. SEAP serum levels are quantified 72 h post implantation.
CHO-PEACE8 is microencapsulated in coherent alginate-PLL-alginate capsules and implanted subcutaneously into mice. The back of treated mice is partially shaved and vaseline-based skin lotions (200 μL) containing different amounts of phloretin (0-42 mg) are put on every day. […]
CHO-PEACE8 and CHO-SEAP18 (Fluri D. A., Kemmer C., Daoud-El Baba M., Fussenegger M., 2008, J Control Release 131(3):211-219) are encapsulated in alginate-poly-(L-lysine)-alginate beads (400 μm; 200 cells/capsule) using an Inotech Encapsulator Research IE-50R (Recipharm, Basel, Switzerland) according to the manufacturer's instructions and the following parameters: 0.2 mm nozzle, 20 mL syringe at a flow rate of 405 units, nozzle vibration frequency of 1024 Hz and 900 V for bead dispersion. […] Thereafter, the mice are sacrificed, blood samples collected and SEAP levels are quantified in the serum which is isolated using microtainer SST tube according to the manufacturer's instructions (Beckton Dickinson, Plymouth, UK). […]

[3] = biological target: TtgA1 (TtgR-VP16) (Pseudomonas putida, UniProt Q9AIU0); assay: Time-delayed induction of SEAP production of CHO-PEACE8 in bioreactor; assay type: cell-based; set-up: expressed in transfected cells; host or cells: CHO-K1 (transient pMG11 or pMG13); also HEK-293, BHK-21, COS-7, HaCaT, HT-1080, NIH/3T3, primary human fibroblasts and keratinocytes; settings: 1 L bioreactor, start doses 60, 80 or 100 μM phloretin
Experimental: 2×10^3 cells/mL CHO-PEACE8 are cultivated in a bioreactor containing 1 L culture medium supplemented with either 60, 80 or 100 μM phloretin and SEAP production is profiled for 211 h. Owing to a defined phloretin degradation profile in culture and a precise induction threshold of 40 μM phloretin, the onset of SEAP production can be programmed to occur at a very precise point in time by defining the cell density and the phloretin concentration at production start.
Since phloretin is a non-toxic fruit component, it is an ideal product gene inducer for biopharmaceutical manufacturing scenarios, which require precise timing or dosing of difficult-to-express protein pharmaceuticals. Also, since phloretin has a determined half-live of 70 h in mammalian cell culture systems any production culture can be programmed to start product gene expression at a predefined point in time as phloretin concentrations drop below a repressing threshold level. A 1 L BioWave® bioreactor is inoculated with 2×10^3 CHO-PEACE8 and different transgene-repressing phloretin doses of 60, 80 or 100 μM. While CHO-PEACE8 grows exponentially from the start of the bioprocess, SEAP production gradually increases once phloretin is degraded to non-repressive levels (40 μM; FIG. 8). […]

Chain of TtgA1 (TtgR-VP16) (Q9AIU0 whole entry, added parts left off): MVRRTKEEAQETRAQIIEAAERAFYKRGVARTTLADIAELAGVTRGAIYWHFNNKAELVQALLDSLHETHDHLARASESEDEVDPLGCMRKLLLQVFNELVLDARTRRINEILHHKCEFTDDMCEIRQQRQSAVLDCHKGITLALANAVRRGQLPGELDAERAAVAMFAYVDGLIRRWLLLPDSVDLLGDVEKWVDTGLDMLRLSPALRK

In the case of O=C(CCc1ccc(O)cc1)c1c(O)cc(O)cc1O [phloretin, 3-[4-hydroxyphenyl]-1-[2,4,6-trihydroxyphenyl]-1-propanone], the “impact on heterologous protein (SEAP) production” value ([1]; CHO-K1 constitutive SEAP (pSEAP2-Control), phloretin 0, 25, 50, 75, 100 μM) was “no negative impact on heterologous protein production”, the “viable cell density / CHO-K1 proliferation” value ([1]; phloretin up to 100 μM) was “does not compromise CHO-K1 proliferation” and the “SEAP serum levels in treated mice” value [2] was “phloretin-dependent dose-response characteristics”. For the same molecule, the “induction threshold (non-repressive phloretin level) for SEAP production” value [3] was 40 µM.

From patent publication US8653046B2, “Controlling transgene expression across the skin” (ETH Zurich, priority 2009, dated 2014)
